Patent US20110281814A1, “METHODS AND COMPOSITIONS FOR TREATING BREAST CANCER” (Genzyme Corporation, priority 2009, published 2011)
Read-outs that look alike come from different tables or passages of the source.

Legend:
murine 4T1 cells = details: Smith et al. 2004, cited from earlier work
[1] = test system: SDF-1α/CXCL12-mediated transactivation of HER2/neu; details: MDA-MB-361 breast cancer cells, in vitro; Cabioglu et al. 2005; cited from earlier work
established 4T1 tumors = test system: established 4T1 tumors
Description: The 4T1 cell line (available from the […], Manassas, Va.) was derived from a spontaneously arising BALB/c mammary tumor and is commonly used as a syngeneic mouse model of metastatic breast cancer. When introduced orthotopically, the 4T1 line grows rapidly at the primary site and forms metastases in lungs, liver, bone and brain over a period of 3-6 weeks. When introduced intravenously or arterially, metastases are apparent in the same organs after 1-2 weeks. The rapid and efficient metastasis to organs affected in human breast cancer makes the 4T1 model an excellent mouse model for the study of metastatic progression of breast cancer in humans.
Three groups of 6- to 8-week-old SCID mice (6 animals each) were injected subcutaneously with 2×10^5 4T1 cells. At the start of dosing (about 14 days post-injection), the tumor volume was approximately 100 mm^3.
The size of the tumors was measured approximately every four days, beginning on day 10 post-injection. Animals were euthanized when the tumor volume reached approximately 1000 mm^3. […] The time course of the average tumor volume is plotted for each experimental group in FIG. 4A.

[2] = disclosed in PCT Pub. No. WO 00/045814; cited from earlier work
MDA-MB-231 tumors [3] = details: for potentiation of the effect of doxorubicin on tumor growth: three weeks from day 28, vs doxorubicin alone, FIG. 5
Description: Four groups of 6- to 8-week-old SCID mice (6 animals each) were injected subcutaneously with 1×10^6 MDA-MB-231 cells. At the start of dosing (about 28 days post-injection), the tumor volume was approximately 100 mm^3. Beginning approximately 28 days after the injection, Groups 2-4 were administered intraperitoneal injections of doxorubicin once a week (Monday) for three weeks at 2 mg/kg body weight.
The size of the tumors was measured approximately every six days, beginning on day 21 post-injection. Animals were euthanized when the tumor volume reached approximately 1000 mm^3. The time course of the average tumor volume is plotted for each experimental group in FIG. 5.

MDA-MB-231 tumors [4] = test system: MDA-MB-231 tumors
Description: Three groups of 6- to 8-week-old SCID mice (6 animals each) were injected subcutaneously with 2×10^6 MDA-MB-231 cells. At the start of dosing (about 14 days post-injection), the tumor volume was approximately 100 mm^3. Beginning approximately 14 days after the injection, Groups 2 and 3 were administered intraperitoneal injections of doxorubicin once a week (Monday) for the duration of the study at 1 mg/kg body weight.
The size of the tumors was measured approximately every three days, beginning on day 21 post-injection. Animals were euthanized when the tumor volume reached approximately 1000 mm^3. The time course of the average tumor volume is plotted for each experimental group in FIG. 6A.

MDA-MB-231 cells = details: AMD3465 5 or 10 mg/kg i.p. MWF from 7 days post-injection; absence of MSC cells; FIG. 2B
Description: (§1) Six groups of 6- to 8-week-old SCID mice (6 animals each) were injected subcutaneously with 1×10^6 MDA-MB-231 cells. Groups 4-6 were further injected with 1×10^6 MSC cells admixed with the MDA-MB-231 cells.
(§2) The size of the tumors was measured approximately every five days, beginning on day 15 post-injection. Animals were euthanized when the tumor volume reached approximately 1000 mm^3. The time course of the average tumor volume is plotted for each experimental group in FIGS. 2A and 2B.

[5] = test system: MDA-MB-231 cells admixed with MSC cells; details: presence of MSC cells, FIG. 2A
Description: as §1, §2

[6] = test system: MDA-MB-231 human breast cancer cells admixed with human mesenchymal stem (MSC) cells; assay: Efficacy of AMD3465 in MDA-MB-231+MSC breast cancer model (Example 1); format: in vivo, SCID mice; details: vs PBS control, FIG. 1
Description: The MSC cells provide stromal support to the MDA-MB-231 cells and enhance tumor growth and metastasis via SDF-1α/CXCL12 and RANTES pathways.
Group 2 was given intraperitoneal injections of anti-human SDF-1α/CXCL12 monoclonal antibody three times a week (Monday, Wednesday and Friday) for six weeks at 100 μg per animal.

[7] = test system: established MDA-MB-231 tumors; details: for rate of tumor growth: FIG. 3A; for mean survival (Kaplan-Meier): FIG. 3B
Description: Four groups of 6- to 8-week-old SCID mice (8 animals each) were injected subcutaneously with 1×10^6 MDA-MB-231 cells. At the start of dosing (about 21 days post-injection), the tumor volume was approximately 100 mm^3.
The size of the tumors was measured approximately every five days, beginning on day 21 post-injection. Animals were euthanized when the tumor volume reached approximately 1000 mm^3. The time course of the average tumor volume is plotted for each experimental group in FIG. 3A.

breast cancer = details: mouse models of breast cancer; literature; cited from earlier work
[8] = AMD3100 1.25 mg/kg s.c. MWF for two weeks, FIG. 4A
[9] = AMD3100 […] + doxorubicin 2 mg/kg
[10] = AMD3100 […] + doxorubicin 1 mg/kg

## c1cc(CN2CCCNCCNCCCNCC2)ccc1CN1CCCNCCNCCCNCC1 [AMD3100]
Murine 4T1 cells
  growth onset of 4T1 cells in the lung: significantly delayed the growth onset
Murine 4T1 cells; mice with experimental lung metastases
  overall survival: did not appear to improve overall survival
[1]
  SDF-1α/CXCL12-mediated transactivation of HER2/neu: inhibit
Established 4T1 tumors; [8]
  leveling off of tumor growth: largely leveled off by day 26 post-injection
  onset of tumor growth: delayed by approximately one week
  rate of tumor growth: significantly decreased the rate of tumor growth
Established 4T1 tumors; AMD3100 1.25 mg/kg, FIG. 4B
  mean survival (Kaplan-Meier): increased the mean survival
[2]
  white blood cell count: increasing the white blood cell count
MDA-MB-231 tumors [3]; AMD3100 1.25 mg/kg s.c. MWF + doxorubicin 2 mg/kg i.p. weekly
  potentiation of the effect of doxorubicin on tumor growth: not at 1.25 mg/kg
MDA-MB-231 tumors [3]; [9]
  leveling off of tumor growth: leveled off by day 92 post-injection
  onset of tumor growth: delayed by several weeks
MDA-MB-231 tumors [3]; AMD3100 […] s.c. MWF + doxorubicin 2 mg/kg i.p. weekly
  potentiation of the effect of doxorubicin on tumor growth: potentiated the effect of 2 mg/kg doxorubicin on the tumor growth
MDA-MB-231 tumors [4]; [10]
  leveling off of tumor growth: leveled off by day 50 post-injection
  onset of tumor growth: delayed by about two weeks
  rate of tumor growth compared to doxorubicin alone: significantly (p=0.04) decreased
MDA-MB-231 tumors [4]; AMD3100 […] + doxorubicin 1 mg/kg, FIG. 6B
  mean survival (Kaplan-Meier) compared to doxorubicin alone: significantly (p=0.07) increased the mean survival
MDA-MB-231 tumors [4]; AMD3100 […] s.c. MWF + doxorubicin 1 mg/kg i.p. weekly, duration of study from day 14, FIG. 6A
  potentiation of the effect of doxorubicin on tumor growth: significantly potentiated the effect of 1 mg/kg doxorubicin on the tumor growth

## c1ccc(CNCc2ccc(CN3CCCNCCNCCCNCC3)cc2)nc1 [AMD3465]
MDA-MB-231 cells
  rate of tumor growth: no statistically significant effect
[5]; AMD3465 5 mg/kg i.p. MWF from 7 days post-injection
  rate of tumor growth: significantly (p=0.024) decreased the rate of tumor growth
[5]; AMD3465 10 mg/kg i.p. MWF from 7 days post-injection
  rate of tumor growth: not at 10 mg/kg
[6]; AMD3465 5 mg/kg i.p. MWF for six weeks from 48 hours post-injection
  rate of tumor growth: significantly (p=0.07) decreased the rate of tumor growth
[6]; AMD3465 10 mg/kg i.p. MWF for six weeks from 48 hours post-injection
  rate of tumor growth: not at 10 mg/kg
[7]; AMD3465 5 mg/kg i.p. MWF from about 21 days post-injection
  rate of tumor growth: not at 5 or 10 mg/kg
[7]; AMD3465 5 mg/kg
  mean survival (Kaplan-Meier): not at 5 or 10 mg/kg
[7]; AMD3465 10 mg/kg i.p. MWF from about 21 days post-injection
  rate of tumor growth: not at 5 or 10 mg/kg
[7]; AMD3465 10 mg/kg
  mean survival (Kaplan-Meier): not at 5 or 10 mg/kg

## TN14003
Breast cancer
  metastasis: reduce metastasis
  primary tumor growth: reduce primary tumor growth
